One compound from patent US10471119B2, “Composition for preventing, ameliorating, or treating neurological disease containing osmotin peptide as active ingredient” (INDUSTRY-ACADEMIC COOPERATION FOUNDATION GYEONGSANG …, priority 2015, dated 2019) can be followed below.

Each structure is given as a SMILES string. Residues, ends and D or L forms follow the SMILES beside them.

For data set [1], the system named is human neuroblast line SH-SY5Y. As to the kind of experiment: ApoTox-Glo Triplex assay (cell viability, cytotoxicity, caspase-3 activity). Type of data set: cell-based. Particulars: neuronal cells. How it is done:
Human neuroblast line SH-SY5Y cells were cultured in 100 μl of dulbecco modified eagle medium (DMEM) supplemented with 10% (v/v) fetal bovine serum (FBS) and 1% (w/v) antibiotic (penicillin-streptomycin) at 37° C. and under the condition of 5% CO2.
Cells were seeded in a 96-well plate containing growth medium (DMEM medium containing 10% FBS, 100 units/ml penicillin, and […] streptomycin) in such a way that 100 μl of the culture was seeded in every cell at the population of 2×10^4 cells, and cultured under the condition of 5% CO2 at 37° C. When cells were about 70-90% confluent, they were transformed with pCAX-APP Swe/Ind for 8 hours by using Lipofectamine 3000 according to the manufacturers instructions. Then, the medium was removed by suction and replaced with fresh 100 μl of growth medium containing 0.5 to 20 μM osmotin-peptide. The cells in the fresh medium were incubated for 24 hours.
After 24 hours, ApoTox-Glo™ Triplex assay using Glomax-Multi Detection system was performed according to the manufacturer's instructions to confirm cell viability, cytotoxicity assay, and caspase-3 activity.

A short description of data set [2]: Brain transfer of osmotin peptide-FITC after IP and tail vein (IV) injection, confocal fluorescence. Type of data set: in vivo, mice. Particulars: for migration to the hippocampus of the brain: four hours later, FIG. 3. How it is done: In addition, osmotin peptide-FITC was administered to the mice by intraperitoneal (IP) injection and tail vein injection (IV). Four hours later, the mice were fixed by transcardial perfusion with 4% (v/v) ice-cold paraformaldehyde, and the brain was harvested and post-fixed in 4% (v/v) paraformaldehyde for 72 hours, and finally, transferred to a 20% (w/v) sucrose for 72 hours.
The brain was infiltrated with OCT (optimal cutting temperature compound) under liquid nitrogen, and a 14 μm coronal section was mounted on a ProbeOn Plus slide.
Slides for immunofluorescence analysis were washed twice with 0.01 M PBS buffer for 15 minutes. The sections were covered with proteinase K and incubated for 5 minutes in a humid chamber at the temperature of 37° C. Incubation was performed for one hour in a blocking solution containing 5% (v/v) normal goat serum dissolved in PBS buffer and 0.3% (v/v) Triton X-100. After the blocking process, the mounting cover slips and sections were observed on a confocal laser-scanning microscope (Flouview FV 1000).

Turning to `C[C@@H](O)[C@H](NC(=O)[C@@H]1CCCN1C(=O)CNC(=O)[C@H](CS)NC(=O)[C@@H]1CCCN1C(=O)CNC(=O)[C@H](CCC(N)=O)NC(=O)[C@@H](NC(=O)[C@@H](N)CS)[C@@H](C)O)C(=O)O` [osmotin peptide] (H-CTQGPCGPT-OH), the cytotoxicity entry in data set [1] is listed as “little cytotoxicity”. Also, the “migration to the hippocampus of the brain” value in data set [2] (intraperitoneal (IP) injection) and in data set [2] (tail vein injection (IV)) was “migrated to the hippocampus of the brain” throughout. Further, the “migration to cortex and hypothalamus of the brain” value in data set [2] (intravenous injection, FIG. 4) was “migrated to cortex and hypothalamus of the brain”.
